Assay results as given in patent publication US20240269128A1, “COMPOUNDS FOR TREATING OR PREVENTING ALZHEIMER'S DISEASE” (THE UNITED STATES OF AMERICA, as represented by the …, priority 2021, published 2024).

Columns and labels:
[1] = test system: SH-SY5Y-hTau441(V337M/R406W) cells; experiment: Tau phosphorylation assay (Phospho(Thr231)/Total Tau); assay type: cell-based, human; settings: 25 μM HCQ
Procedure: Tau Phosphorylation: SH-SY5Y-hTau441(V337M/R406W) cells were maintained in culture medium (DMEM medium, 10% FCS, 1% NEAA, 1% L-Glutamine, 100 g/mL Gentamycin, 300 μg/mL Geneticin G-418) and differentiated with 10 μM retinoic acid (RA) for 5 days changing medium every 2 to 3 days. Prior to the treatment, cells were seeded onto 24-well plates at a cell density of 2×10^5 cells per well (DIV1). Drug compounds were applied on DIV2. After 24 h of incubation (DIV3), cells on 24-well plates were harvested in 60 μL RIPA-Buffer [50 mM Tris pH 7.4, 1% Nonidet P40, 0.25% Na-deoxy-cholate, 150 mM NaCl, 1 mM EDTA supplemented with freshly added 1 μM NaF, 0.2 mM Na-ortho-vanadate, 80 μM Glycerophosphate, protease (Calbiochem) and phosphatase (Sigma) inhibitor cocktail]. Protein concentration was determined by BCA assay (Pierce, ThermoFisher) and samples were adjusted to a uniform total protein concentration. Total Tau and phosphorylated Tau were determined by immunosorbent assay from Mesoscale Discovery (Phospho(Thr231)/Total Tau Kit K15121D, Mesoscale Discovery).
Tau phosphorylation: SH-SY5Y-hTau441(V337M/R406W) cells were maintained in culture medium (DMEM medium, 10% FCS, 1% NEAA, 1% L-Glutamine, 100 μg/mL Gentamycin, 300 μg/mL Geneticin G-418) and differentiated with 10 μM retinoic acid (RA) for 5 days changing medium every 2 to 3 days. Prior to the treatment, cells were seeded onto 24-well plates at a cell density of 2×10^5 cells per well (DIV1). HCQ (25 μM) was applied on DIV2. After 24 h of incubation (DIV3), cells on 24-well plates were harvested in 60 μL RIPA-Buffer [50 mM Tris pH 7.4, 1% Nonidet P40, 0.25% Na-deoxy-cholate, 150 mM NaCl, 1 mM EDTA supplemented with freshly added 1 μM NaF, 0.2 mM Na-ortho-vanadate, 80 μM Glycerophosphate, protease (Calbiochem) and phosphatase (Sigma) inhibitor cocktail]. Protein concentration was determined by BCA assay (Pierce, ThermoFisher) and samples were adjusted to a uniform total protein concentration. Total Tau and phosphorylated Tau were determined by immunosorbent assay from Mesoscale Discovery (Phospho(Thr231)/Total Tau Kit K15121D, Mesoscale Discovery).
Tau Phosphorylation: SH-SY5Y-hTau441(V337M/R406W) cells were maintained in culture medium [DMEM medium, 10% FCS, 1% nonessential amino acids (NEAA), 1% l-glutamine, gentamycin (100 μg/ml), and geneticin G-418 (300 μg/ml)] and differentiated with 10 μM retinoic acid for 5 days changing medium every 2 to 3 days. […] Protein concentration was determined by BCA assay (Pierce, Thermo Fisher Scientific, Waltham, MA), and samples were adjusted to a uniform total protein concentration. Total tau and phosphorylated tau were determined by immunosorbent assay from Mesoscale Discovery [Phospho(Thr231)/Total Tau Kit K15121D, Mesoscale Discovery, Meso Scale Diagnostics]. […]

H4-hAPP cells = experiment: Aβ secretion assay; assay type: cell-based, human
Procedure: (§1) Aβ Secretion: H4-hAPP cells were cultivated in Opti-MEM supplemented with 10% FCS, 1% penicillin/streptomycin 200 μg/mL Hygromycin B and 2.5 μg/mL Blasticidin S. H4-hAPP cells were seeded into 96 well plates (2×10^4 cells per well). On the next day, cells in 96 well plates were treated with compounds, R.I. (DAPT 400 nM) or vehicle. 24 h later, supernatants were collected for further Aβ measurements by MSD® (V-PLEX Aβ Peptide Panel 1 (6E10) Kit, K15200E, Mesoscale Discovery).
as §1, with “secretion: Human APP overexpressing” for “Secretion:”, “HCQ (0.25 μM, 2.5 μM and 25 μM) or the reference item” for “with compounds, R.I.”, “nM), a γ-secretase inhibitor” for “nM) or”
(§2) Cultivation and treatment of H4-hAPP cells: H4-hAPP cells were thawed and cultivated in Opti-MEM supplemented with 10% FCS, 1% penicillin/streptomycin 200 μg/ml Hygromycin B and 2.5 μg/ml Blasticidin S (=culture medium). H4-hAPP cells were seeded into 96 well plates (2×10^4 cells per well). On the next day, cells in 96 well plates were treated with TUDCA (100 μM (C1), 10 μM (C2), or 1.0 μM (C3)), R.I. (DAPT 400 nM) or vehicle. Alternatively, cells in 96 well plates were treated with 25 μM HCQ/0.1 μM TUDCA (C1), 2.5 μM HCQ/100 μM TUDCA (C2), and 2.5 μM HCQ/10 μM TUDCA (C3). 24 h later, supernatants were collected for further Aβ measurements by MSD. The experiment was performed in n=6 technical replicates for all groups.
(§3) Aβ38, 40, 42 measurement: Supernatants were diluted 1:10 and analyzed for human Aβ38, 40, and 42 with MSD® 96-well MULTI-SPOT® 6E10 Abeta Triplex Assay (Mesoscale Discovery, Rockville, MD). The immune assay was carried out according to the manual and plates are read on the MESO QuickPlex SQ 120 multiplexing instrument. Analyte levels were evaluated according to adequate Aβ peptide standards (MSD) as pg per mL.
Aβ Secretion: H4-hAPP cells were cultivated in Opti-MEM supplemented with 10% FCS, 1% penicillin/streptomycin, hygromycin B (200 μg/ml), and blasticidin S (2.5 μg/ml). H4-hAPP cells were seeded into 96-well plates (2×10^4 cells per well). On the next day, cells in 96-well plates were treated with compounds, reference item [400 nM N-[N-(3,5-difluorophenacetyl-1-alanyl)]-S-phenylglycine t-butyl ester (DAPT)], or vehicle. Twenty-four hours later, supernatants were collected for further Aβ measurements by MSD [V-PLEX Aβ Peptide Panel 1 (6E10) Kit, K15200E, Mesoscale Discovery].
as §2, with “Culture” for “Cultivation”, “T.I.,” for “TUDCA (100 μM (C1), 10 μM (C2), or 1.0 μM (C3)),”, “vehicle.” for “vehicle. Alternatively, cells in 96 well plates were treated with 25 μM HCQ/0.1 μM TUDCA (C1), 2.5 μM HCQ/100 μM TUDCA (C2), and 2.5 μM HCQ/10 μM TUDCA (C3).”
as §3, with “measurement in H4-hAPP cells:” for “measurement:”, “Discovery).” for “Discovery, Rockville, MD).”, “were” for “are”, “120.” for “120 multiplexing instrument.”

[2] = test system: Primary hippocampal neurons; experiment: Neurite outgrowth and neurogenesis; assay type: cell-based, mouse; settings: HCQ 25, 2.5 or 0.25 μM
Procedure: Neurite outgrowth and neurogenesis: Primary hippocampal neurons were prepared from E18.5 timed pregnant C57BL/6JRccHsd mice as previously described. Cells were seeded in poly-D-lysine pre-coated 96-well plates at a density of 2.6×10^4 cells/well in (Neurobasal, 2% B-27, 0.5 mM glutamine, 25 μM glutamate, 1% Penicillin-Streptomycin). Directly on DIV1 HCQ (TargetMol, T0951) at 25 μM, 2.5 μM or 0.25 μM concentrations or vehicle control was applied. On DIV2 10 μM Bromodeoxyuridine (BrdU; B5002 Sigma Aldrich) was added and cells were fixed after additional 24 h. Cells were permeabilized with 0.1% Triton-X and incubated with primary Beta Tubulin Isotype III (T8660, Sigma Aldrich) and BrdU antibodies (MAS250c, AHrlan-Sera Lab) overnight at 4° C. Afterwards cells were washed two times with PBS and incubated with fluorescently labeled secondary antibodies and DAPI for 1.5 hour at RT in the darkness. Cells were rinsed three times with PBS imaged with the Cytation 5 Multimode reader (BioTek) at 10× magnification (6 images per well). BrdU positive cells were counted as marker for neurogenesis and Beta Tubulin Isotype III signal was used for macro-based quantification of neurite outgrowth.

STAT3 = STAT3 (Mus musculus, UniProt P42227); experiment: Western blot of hippocampal STAT3 and p-STAT3 after STET; design: hippocampal homogenate samples across four groups; from tissue; host or cells: acute hippocampal slices from WT and APP/PS1 (APPSwe/PS1dE9) mice
Procedure: To test if the rescue of impaired late-LTP by HCQ may be through inactivation of STAT3, levels of total STAT3 and phosphorylated STAT3 (p-STAT3; Tyr705) were examined to determine whether they were reduced by HCQ treatment. Specifically, differences in STAT3 and pSTAT3 levels were tested in hippocampal homogenate samples across four groups: WT, APP/PS1, WT+50 μM HCQ, and APP/PS1+50 μM HCQ mice (5-months old). All hippocampal slices were incubated in the interphase chamber and HCQ was applied 30 minutes before and after STET. In each group, hippocampal slices were collected one hour after STET.

Sequence of STAT3 (P42227 whole entry): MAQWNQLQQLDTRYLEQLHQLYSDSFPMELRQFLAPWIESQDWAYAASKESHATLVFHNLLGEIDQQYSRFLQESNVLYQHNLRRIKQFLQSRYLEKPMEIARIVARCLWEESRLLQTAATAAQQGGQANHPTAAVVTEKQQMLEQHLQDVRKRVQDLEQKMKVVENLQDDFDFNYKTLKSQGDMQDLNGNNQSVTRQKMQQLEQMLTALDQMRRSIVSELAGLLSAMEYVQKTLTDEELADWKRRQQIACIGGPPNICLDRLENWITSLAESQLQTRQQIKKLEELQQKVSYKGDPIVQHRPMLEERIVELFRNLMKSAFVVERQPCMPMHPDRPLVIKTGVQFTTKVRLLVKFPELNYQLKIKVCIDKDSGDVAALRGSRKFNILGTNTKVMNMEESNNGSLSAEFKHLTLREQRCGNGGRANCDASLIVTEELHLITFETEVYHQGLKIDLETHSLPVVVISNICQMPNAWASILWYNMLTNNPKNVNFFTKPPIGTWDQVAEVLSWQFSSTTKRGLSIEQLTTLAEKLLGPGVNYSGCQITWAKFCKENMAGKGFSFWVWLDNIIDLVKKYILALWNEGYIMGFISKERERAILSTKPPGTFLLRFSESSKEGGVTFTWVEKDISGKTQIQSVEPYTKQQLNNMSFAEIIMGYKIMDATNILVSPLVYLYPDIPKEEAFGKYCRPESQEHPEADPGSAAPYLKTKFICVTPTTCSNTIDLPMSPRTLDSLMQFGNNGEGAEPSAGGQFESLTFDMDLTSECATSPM

Structure (SMILES)	phosphorylated tau (ptau231) [1]	total tau [1]	secreted Aβ1-42 (H4-hAPP cells; HCQ 0.25 μM, 2.5 μM and 25 μM)	neurite outgrowth and neurogenesis [2]	hippocampal p-STAT3 (Tyr705) (STAT3; APP/PS1+50 μM HCQ vs untreated APP/PS1)	hippocampal total STAT3 (STAT3; APP/PS1 vs APP/PS1+50 μM HCQ)	hippocampal total STAT3 and p-STAT3 (Tyr705) (STAT3; WT vs WT+50 μM HCQ)	secretion of Aβ1-38 (H4-hAPP cells; TUDCA 100, 10, 1.0 μM, 24 h)	secretion of Aβ1-40 (H4-hAPP cells; TUDCA 100, 10, 1.0 μM, 24 h)	secretion of Aβ1-42 (H4-hAPP cells; TUDCA 100, 10, 1.0 μM, 24 h)	effect in Aβ release (H4 cells) (H4-hAPP cells; posterior probability of a protective effect)
CCN(CCO)CCCC(C)Nc1ccnc2cc(Cl)ccc12 (centres unmarked) [HCQ, hydroxychloroquine]	reduced	reduced	did not alter	No effects	significantly lower	no significant difference	similar	–	–	–	–
C[C@H](CCC(=O)NCCS(=O)(=O)O)[C@H]1CC[C@H]2[C@@H]3[C@@H](O)C[C@@H]4C[C@H](O)CC[C@]4(C)[C@H]3CC[C@]12C [TUDCA, tauroursodeoxycholic acid]	–	–	–	–	–	–	–	lowers	lowers	lowers	protective
